Test results taken from US12264158B2, “Protein kinase MKK4 inhibitors for promoting liver regeneration or reducing or preventing hepatocyte death” (HEPAREGENIX GMBH, priority 2018, dated 2025).
pIC50: −log10 of the molar value. Each block holds one molecule with its values, some of them ahead of it.

What was measured:
MEKK2 = target: T1, MEKK2 (Homo sapiens, UniProt Q9Y2U5); experiment: Radiometric protein kinase assay, MEKK2; format: biochemical; conditions: substrate Casein, ATP 0.2 μM; read-out: MEKK2, potency derived from IC50-values
T1 construct: purchased ProQinase #0583-0000-1
T1 sequence (Q9Y2U5 1-619): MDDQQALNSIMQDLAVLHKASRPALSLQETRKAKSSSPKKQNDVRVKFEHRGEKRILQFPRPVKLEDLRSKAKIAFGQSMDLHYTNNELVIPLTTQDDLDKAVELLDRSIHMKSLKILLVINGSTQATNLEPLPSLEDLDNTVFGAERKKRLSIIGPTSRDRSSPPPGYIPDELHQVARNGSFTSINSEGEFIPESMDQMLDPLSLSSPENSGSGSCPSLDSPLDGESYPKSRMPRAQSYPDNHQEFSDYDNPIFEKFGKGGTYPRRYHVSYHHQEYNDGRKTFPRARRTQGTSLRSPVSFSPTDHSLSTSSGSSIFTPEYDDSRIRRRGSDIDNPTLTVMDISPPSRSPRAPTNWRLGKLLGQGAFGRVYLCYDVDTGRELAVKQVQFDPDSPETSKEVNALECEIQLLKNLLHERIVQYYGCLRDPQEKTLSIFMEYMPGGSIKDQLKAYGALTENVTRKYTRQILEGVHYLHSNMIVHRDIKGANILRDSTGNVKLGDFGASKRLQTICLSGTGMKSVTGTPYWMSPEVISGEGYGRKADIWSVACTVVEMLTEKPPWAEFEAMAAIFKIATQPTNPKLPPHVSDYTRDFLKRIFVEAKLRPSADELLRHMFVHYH
Description: A radiometric protein kinase assay was used for measuring the kinase activity of the respective protein kinases. All kinase assays were performed in 96-well polypropylene plates. After the reactions were stopped, the assay mixtures were transferred to 96-well MSFC filter-plates (Millipore). The reaction mix was passed through the filter membrane by aspiration, the membrane was washed 3 times with 150 mM H3PO4, once with ethanol, dried and liquid scintillation cocktail was added. Radioactivity was determined by counting of the samples in a Microbeta multiwell scintillation counter (Wallac).

JNK1 = target: T2, JNK1 (Homo sapiens, UniProt P45983); experiment: KINOMEscan competition binding assay, selectivity against off-target JNK1; conditions: concentration of 100 nM
T2 construct: M1/Q384; host or cells: HEK-293
Description: (§1) The assay was performed by combining three components: DNA-tagged kinase; immobilized ligand; and a test compound. The ability of the test compound to compete with the immobilized ligand was measured via quantitative PCR of the DNA tag. The technology is described in detail in Fabian, M. A. et al. A small molecule-kinase interaction map for clinical kinase inhibitors. Nat. […] M. W. et al. A quantitative analysis of kinase inhibitor selectivity, Nat.
(§2) For investigation of the affinity to MKK4, MKK7 and JNK1, the kinases were produced in HEK-293 cells and subsequently tagged with DNA for qPCR detection. […] The liganded beads were blocked with excess biotin and washed with blocking buffer (SEABLOCK™ (Pierce), 1% BSA, 0.05% TWEEN®20, 1 mM DTT) to remove unbound ligand and to reduce nonspecific binding. […] All reactions were performed in polystyrene 96-well plates in a final volume of 0.135 mL. […] The kinase concentration in the eluates was measured by qPCR.
(§3) The test compounds were provided as 10 mM stock solutions. The test solutions at indicated final concentrations were prepared at DiscoverX.

MKK7 = target: T3, MKK7 (Homo sapiens, UniProt O14733); experiment: KINOMEscan competition binding assay, selectivity against off-target MKK7; conditions: concentration of 100 nM
T3 construct: M1/R419; host or cells: HEK-293
T3 sequence (O14733 1-419): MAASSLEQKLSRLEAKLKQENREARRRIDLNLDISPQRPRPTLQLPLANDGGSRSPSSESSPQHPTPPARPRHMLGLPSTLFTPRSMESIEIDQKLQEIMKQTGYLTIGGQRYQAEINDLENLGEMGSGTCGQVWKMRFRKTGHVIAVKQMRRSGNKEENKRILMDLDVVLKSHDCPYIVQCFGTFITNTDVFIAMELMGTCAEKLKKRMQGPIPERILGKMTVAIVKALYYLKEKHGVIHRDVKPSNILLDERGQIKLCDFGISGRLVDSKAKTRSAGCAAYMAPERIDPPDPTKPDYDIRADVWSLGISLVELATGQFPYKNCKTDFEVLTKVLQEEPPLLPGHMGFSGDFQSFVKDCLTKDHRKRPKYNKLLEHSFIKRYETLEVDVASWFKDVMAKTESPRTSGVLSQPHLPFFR
Description: as §1, §2, §3

BRaf = BRaf (Homo sapiens, UniProt P15056); experiment: KINOMEscan competition binding assay, selectivity against off-target BRaf; conditions: concentration of 100 nM
Description: as §1, §3

MKK4 = target: T4, MKK4 (Homo sapiens, UniProt P45985); experiment: KINOMEscan competition binding assay, MKK4 potency; conditions: concentration of 100 nM
T4 construct: S84/D399; host or cells: HEK-293
T4 sequence (P45985 84-399): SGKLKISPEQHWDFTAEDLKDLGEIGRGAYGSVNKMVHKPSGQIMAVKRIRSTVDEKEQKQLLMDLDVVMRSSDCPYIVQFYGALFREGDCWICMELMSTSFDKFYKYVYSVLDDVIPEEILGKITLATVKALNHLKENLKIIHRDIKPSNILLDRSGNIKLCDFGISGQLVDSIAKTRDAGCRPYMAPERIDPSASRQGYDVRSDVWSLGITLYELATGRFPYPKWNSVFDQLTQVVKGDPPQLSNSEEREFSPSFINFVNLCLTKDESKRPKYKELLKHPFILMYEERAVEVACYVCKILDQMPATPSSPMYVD
Description: as §1, §2, §3

Chain of BRaf (P15056 whole entry): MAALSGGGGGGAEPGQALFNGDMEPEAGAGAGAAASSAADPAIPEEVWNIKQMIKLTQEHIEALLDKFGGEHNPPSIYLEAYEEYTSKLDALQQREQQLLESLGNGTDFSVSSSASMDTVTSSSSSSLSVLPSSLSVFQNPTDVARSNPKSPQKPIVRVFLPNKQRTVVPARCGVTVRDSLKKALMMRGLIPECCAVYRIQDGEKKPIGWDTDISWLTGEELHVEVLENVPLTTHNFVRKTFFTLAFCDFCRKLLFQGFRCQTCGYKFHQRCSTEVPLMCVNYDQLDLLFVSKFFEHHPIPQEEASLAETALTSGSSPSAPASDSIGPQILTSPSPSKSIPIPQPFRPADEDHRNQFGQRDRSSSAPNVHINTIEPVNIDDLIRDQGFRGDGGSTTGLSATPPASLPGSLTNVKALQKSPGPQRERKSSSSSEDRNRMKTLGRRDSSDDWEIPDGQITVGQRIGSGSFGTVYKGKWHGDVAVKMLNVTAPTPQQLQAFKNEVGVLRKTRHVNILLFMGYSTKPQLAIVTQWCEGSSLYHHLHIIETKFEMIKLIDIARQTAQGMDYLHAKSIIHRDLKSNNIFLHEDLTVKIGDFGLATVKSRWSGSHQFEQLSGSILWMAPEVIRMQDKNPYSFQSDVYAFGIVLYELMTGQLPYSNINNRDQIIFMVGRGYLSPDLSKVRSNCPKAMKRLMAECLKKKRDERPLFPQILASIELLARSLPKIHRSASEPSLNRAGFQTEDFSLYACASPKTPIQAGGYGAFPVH
T2 sequence (P45983 1-384 isoform P45983-2): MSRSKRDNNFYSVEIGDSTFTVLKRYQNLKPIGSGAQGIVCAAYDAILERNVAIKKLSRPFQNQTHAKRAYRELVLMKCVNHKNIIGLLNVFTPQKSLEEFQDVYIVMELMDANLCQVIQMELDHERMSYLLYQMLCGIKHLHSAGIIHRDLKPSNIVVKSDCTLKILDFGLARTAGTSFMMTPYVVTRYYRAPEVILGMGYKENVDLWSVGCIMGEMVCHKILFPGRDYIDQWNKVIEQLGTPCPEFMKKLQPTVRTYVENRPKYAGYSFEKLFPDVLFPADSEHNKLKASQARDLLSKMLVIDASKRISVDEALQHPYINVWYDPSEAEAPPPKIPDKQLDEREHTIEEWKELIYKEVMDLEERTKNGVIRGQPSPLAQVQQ

Selectivity vs. JNK1, ratio PoC(JNK1)/PoC(MKK4) (JNK1): + (10 > PoC(JNK1)/PoC(MKK4) ≥ 3)
Selectivity vs. MKK7, ratio PoC(MKK7)/PoC(MKK4) (MKK7): + (10 > PoC(MKK7)/PoC(MKK4) ≥ 3)
Selectivity vs. BRaf, ratio PoC(BRaf)/PoC(MKK4) (BRaf): + (10 > PoC(BRaf)/PoC(MKK4) ≥ 3)
MKK4, residual percent of control binding (PoC) (MKK4): + (10 ≤ PoC < 30)
Structure (SMILES): CCCCS(=O)(=O)Nc1cccc(C(=O)c2n[nH]c3ncc(-c4ccc5c(c4)OCCO5)cc23)c1F [Example 43, N-(3-(5-(2,3-dihydro-benzo-[b][1,4]dioxin-6-yl)-1H-pyrazolo[3,4-b]-pyridine-3-carbonyl)-2-fluorophenyl)-butane-1-sulfonamide]

Selectivity vs. JNK1, ratio PoC(JNK1)/PoC(MKK4) (JNK1): O (PoC(JNK1)/PoC(MKK4) < 3)
Selectivity vs. MKK7, ratio PoC(MKK7)/PoC(MKK4) (MKK7): O (PoC(MKK7)/PoC(MKK4) < 3)
Selectivity vs. BRaf, ratio PoC(BRaf)/PoC(MKK4) (BRaf): O (PoC(BRaf)/PoC(MKK4) < 3)
MKK4, residual percent of control binding (PoC) (MKK4): O (PoC ≥ 30)
Structure (SMILES): CCCS(=O)(=O)Nc1ccc(F)c(NC(=O)c2n[nH]c3ncc(-c4ccc(Cl)cc4)cc23)c1F [Example 45, 5-(4-chlorophenyl)-N-(2,6-difluoro-3-(propylsulfonamido)phenyl)-1H-pyrazolo[3,4-b]pyridine-3-carboxamide]

Selectivity vs. JNK1, ratio PoC(JNK1)/PoC(MKK4) (JNK1): O (PoC(JNK1)/PoC(MKK4) < 3)
Selectivity vs. MKK7, ratio PoC(MKK7)/PoC(MKK4) (MKK7): O (PoC(MKK7)/PoC(MKK4) < 3)
Selectivity vs. BRaf, ratio PoC(BRaf)/PoC(MKK4) (BRaf): O (PoC(BRaf)/PoC(MKK4) < 3)
MKK4, residual percent of control binding (PoC) (MKK4): O (PoC ≥ 30)
Structure (SMILES): CCCS(=O)(=O)Nc1ccc(F)c(Sc2n[nH]c3ncc(-c4ccc(Cl)cc4)cc23)c1F [Example 46, N-(3-((5-(4-chlorophenyl)-1H-pyrazolo[3,4-b]pyridin-3-yl)thio)-2,4-difluorophenyl)propane-1-sulfonamide]

Selectivity vs. JNK1, ratio PoC(JNK1)/PoC(MKK4) (JNK1): O (PoC(JNK1)/PoC(MKK4) < 3)
Selectivity vs. MKK7, ratio PoC(MKK7)/PoC(MKK4) (MKK7): O (PoC(MKK7)/PoC(MKK4) < 3)
Selectivity vs. BRaf, ratio PoC(BRaf)/PoC(MKK4) (BRaf): O (PoC(BRaf)/PoC(MKK4) < 3)
MKK4, residual percent of control binding (PoC) (MKK4): O (PoC ≥ 30)
Structure (SMILES): CCCS(=O)(=O)Nc1ccc(F)c([S+]([O-])c2n[nH]c3ncc(-c4ccc(Cl)cc4)cc23)c1F (stereo not shown) [Example 47, N-(3-((5-(4-chlorophenyl)-1H-pyrazolo[3,4-b]pyridin-3-yl)sulfinyl)-2,4-difluorophenyl)propane-1-sulfonamide]

Selectivity vs. JNK1, ratio PoC(JNK1)/PoC(MKK4) (JNK1): O (PoC(JNK1)/PoC(MKK4) < 3)
Selectivity vs. MKK7, ratio PoC(MKK7)/PoC(MKK4) (MKK7): O (PoC(MKK7)/PoC(MKK4) < 3)
Selectivity vs. BRaf, ratio PoC(BRaf)/PoC(MKK4) (BRaf): O (PoC(BRaf)/PoC(MKK4) < 3)
MKK4, residual percent of control binding (PoC) (MKK4): O (PoC ≥ 30)
Structure (SMILES): CCCS(=O)(=O)Nc1ccc(F)c(S(=O)(=O)c2n[nH]c3ncc(-c4ccc(Cl)cc4)cc23)c1F [Example 48, N-(3-((5-(4-chlorophenyl)-1H-pyrazolo[3,4-b]pyridin-3-yl)sulfonyl)-2,4-difluorophenyl)propane-1-sulfonamide]

Selectivity vs. JNK1, ratio PoC(JNK1)/PoC(MKK4) (JNK1): O (PoC(JNK1)/PoC(MKK4) < 3)
Selectivity vs. MKK7, ratio PoC(MKK7)/PoC(MKK4) (MKK7): O (PoC(MKK7)/PoC(MKK4) < 3)
Selectivity vs. BRaf, ratio PoC(BRaf)/PoC(MKK4) (BRaf): O (PoC(BRaf)/PoC(MKK4) < 3)
MKK4, residual percent of control binding (PoC) (MKK4): O (PoC ≥ 30)
Structure (SMILES): CCCS(=O)(=O)Nc1ccc(F)c(Cc2n[nH]c3ncc(-c4ccc(Cl)cc4)cc23)c1F [Example 50, N-(3-((5-(4-chlorophenyl)-1H-pyrazolo[3,4-b]pyridin-3-yl)methyl)-2,4-difluorophenyl)propane-1-sulfonamide]

pIC50 (MEKK2): 5.00 to 6.00
Structure (SMILES): CS(=O)(=O)Nc1ccc(F)c(C(=O)c2n[nH]c3ncc(-c4ccc(S(N)(=O)=O)cc4)cc23)c1F [Example 51b, 4-(3-(2,6-difluoro-3-(methylsulfonamido)benzoyl)-1H-pyrazolo[3,4-b]pyridin-5-yl) benzenesulfonamide]

pIC50 (MEKK2): 5.00 to 6.00
Structure (SMILES): CCCCS(=O)(=O)Nc1ccc(F)c(C(=O)c2n[nH]c3ncc(-c4ccc(S(N)(=O)=O)cc4)cc23)c1F [Example 51c, 4-(3-(3-(butylsulfonamido)-2,6-difluorobenzoyl)-1H-pyrazolo[3,4-b]pyridin-5-yl) benzenesulfonamide]

pIC50 (MEKK2): 5.00 to 6.00
Structure (SMILES): CCCS(=O)(=O)Nc1ccc(F)c(C(=O)c2n[nH]c3ncc(-c4ccc(NS(C)(=O)=O)cc4)cc23)c1F [Example 51g, N-(2,4-difluoro-3-(5-(4-(methylsulfonamido)phenyl)-1H-pyrazolo[3,4-b]pyridine-3-carbonyl)phenyl)propane-1-sulfonamide]

More lines, now with the values behind:

Structure (SMILES): CCCS(=O)(=O)Nc1ccc(F)c(C(=O)c2n[nH]c3ncc(-c4ccc(F)cc4C)cc23)c1F [Example 4, N-(2,4-difluoro-3-(5-(4-fluoro-2-methylphenyl)-1H-pyrazo-lo[3,4-b]-pyri-dine-3-car-bonyl)-phenyl)-propane-1-sulfonamide]
pIC50 (MEKK2): < 5.00

Structure (SMILES): CCCS(=O)(=O)Nc1ccc(F)c(C(=O)c2n[nH]c3ncc(-c4ccc(OC)cc4Cl)cc23)c1F [Example 5, N-(3-(5-(2-chloro-4-methoxy-phenyl)-1H-pyrazolo[3,4-b]-pyridine-3-carbonyl)-2,4-difluorophenyl)propane-1-sulfonamide]
pIC50 (MEKK2): < 5.00

Structure (SMILES): CCCS(=O)(=O)Nc1ccc(F)c(C(=O)c2n[nH]c3ncc(-c4ccc(Cl)c(C(F)(F)F)c4)cc23)c1F [Example 36, N-(3-(5-(4-chloro-3-(trifluoromethyl)phenyl)-1H-pyrazolo[3,4-13]-pyridine-3-carbonyl)-2,4-difluorophenyl)-propane-1-sulfonamide]
Selectivity vs. JNK1, ratio PoC(JNK1)/PoC(MKK4) (JNK1): + (10 > PoC(JNK1)/PoC(MKK4) ≥ 3)
Selectivity vs. MKK7, ratio PoC(MKK7)/PoC(MKK4) (MKK7): + (10 > PoC(MKK7)/PoC(MKK4) ≥ 3)
Selectivity vs. BRaf, ratio PoC(BRaf)/PoC(MKK4) (BRaf): O (PoC(BRaf)/PoC(MKK4) < 3)
MKK4, residual percent of control binding (PoC) (MKK4): + (10 ≤ PoC < 30)

Structure (SMILES): Cc1cc(F)ccc1-c1cnc2[nH]nc(C(=O)c3cccc(NS(C)(=O)=O)c3F)c2c1 [Example 39, N-(2-fluoro-3-(5-(4-fluoro-2-methylphenyl)-1H-pyrazo-lo[3,4-b]pyridine-3-carbonyl)-phenyl)methanesulfonamide]
pIC50 (MEKK2): < 5.00

Structure (SMILES): CS(=O)(=O)Nc1cccc(C(=O)c2n[nH]c3ncc(-c4ccc5c(c4)OCCO5)cc23)c1F [Example 40, N-(3-(5-(2,3-dihydro-benzo-[b][1,4]dioxin-6-yl)-1H-pyrazolo[3,4-b]pyridine-3-carbonyl)-2-fluoro-phenyl)-methanesulfonamide]
pIC50 (MEKK2): < 5.00

Structure (SMILES): CCCCS(=O)(=O)Nc1cccc(C(=O)c2n[nH]c3ncc(-c4ccc(OC)cc4Cl)cc23)c1F [Example 41, N-(3-(5-(2-chloro-4-methoxy-phenyl)-1H-pyrazolo[3,4-b]pyridine-3-carbonyl)-2-fluorophenyl)-butane-1-sulfonamide]
pIC50 (MEKK2): < 5.00

Structure (SMILES): CCCCS(=O)(=O)Nc1cccc(C(=O)c2n[nH]c3ncc(-c4ccc(F)cc4C)cc23)c1F [Example 42, N-(2-fluoro-3-(5-(4-fluoro-2-methylphenyl)-1H-pyrazo-lo[3,4-b]pyridine-3-carbonyl)-phenyl)butane-1-sulfonamide]
pIC50 (MEKK2): < 5.00
